Patent publication US9221875B2, “Amphiphilic peptides for treatment of keratitis” (Agency for Science, Technology and Research, priority 2013, dated 2015)
In brackets after ≈: the same amount, converted by molar mass. Where two headings read alike, the source gives them in different places. Marks after values point to notes of the source that are not given here. Square brackets hold non-standard residues; d marks the D form. Peptide text beside a SMILES is read from it.

Tests used:
[1] = system: 5 microorganisms tested (S. epidermidis, S. aureus, E. coli, P. aeruginosa, C. albicans); assay: Mean MIC over the panel and selectivity index (Example 1); format: cell-based
Procedure: Red blood cells suspension incubated with PBS was used as negative control.

E. coli [2] = settings: 18 h
C. albicans [3] = settings: 42 h
S. aureus [4] = settings: 18 h
S. epidermidis [5] = settings: 18 h
P. aeruginosa [6] = settings: 18 h
S. aureus [7] = settings: 18 h; remark: listed apart in the source
P. aeruginosa [8] = settings: 18 h; remark: listed apart in the source
C. albicans [9] = system: C. albicans
S. epidermidis [10] = settings: 18 h; remark: listed apart in the source
E. coli [11] = settings: 18 h; remark: listed apart in the source
rabbit red blood cells = format: cell-based; settings: red cells of rabbit, 1 h
[12] = system: 5 microorganisms tested (S. epidermidis, S. aureus, E. coli, P. aeruginosa, C. albicans); assay: Mean MIC over the panel and selectivity index (Example 2)
[13] = system: clinically isolated Mycobacterium tuberculosis
C. albicans keratitis = assay: Contact lens-associated C. albicans keratitis mouse model
mice = settings: reported values; cited from earlier work
E. coli [14] = format: cell-based, Escherichia coli
[15] = topical eye drops, peptides 3000 mg/L, amphotericin B 1000 mg/L

Molecule: N=C(N)NCCC[C@H](NC(=O)[C@H](Cc1ccccc1)NC(=O)[C@H](CCCCN)NC(=O)[C@H](Cc1ccccc1)NC(=O)[C@H](CCCNC(=N)N)NC(=O)[C@@H](N)Cc1ccccc1)C(=O)N[C@@H](Cc1ccccc1)C(=O)N[C@@H](CCCCN)C(N)=O [(FRFK)2-NH2] (H-FRFKFRFK-NH2; N-terminus assumed)
- GM, geometric mean of MIC values for the 5 microorganisms tested [1]: 79.7 µg/mL
- MIC E. coli (E. coli [2]): 15.6 µg/mL (≈ 13.3 µM)
- MIC C. albicans (C. albicans [3]): 62.5 µg/mL (≈ 53.2 µM)
- MIC S. aureus (S. aureus [4]): 250 µg/mL (≈ 213 µM)
- MIC S. epidermidis (S. epidermidis [5]): 7.8 µg/mL (≈ 6.64 µM)
- MIC P. aeruginosa (P. aeruginosa [6]): 62.5 µg/mL (≈ 53.2 µM)

Molecule: CC[C@H](C)[C@H](N)C(=O)N[C@@H](CCCNC(=N)N)C(=O)N[C@H](C(=O)N[C@@H](CCCNC(=N)N)C(=O)N[C@H](C(=O)N[C@@H](CCCNC(=N)N)C(=O)N[C@H](C(=O)N[C@@H](CCCNC(=N)N)C(N)=O)[C@@H](C)CC)[C@@H](C)CC)[C@@H](C)CC [(IRIR)2-NH2] (H-IRIRIRIR-NH2; N-terminus assumed)
- GM, geometric mean of MIC values for the 5 microorganisms tested [1]: 13.3 µg/mL
- MIC E. coli (E. coli [2]): 7.8 µg/mL (≈ 7.13 µM)
- MIC C. albicans (C. albicans [3]): 15.6 µg/mL (≈ 14.3 µM)
- MIC S. aureus (S. aureus [4]): 31.3 µg/mL (≈ 28.6 µM)
- MIC S. epidermidis (S. epidermidis [5]): 3.9 µg/mL (≈ 3.56 µM)
- MIC P. aeruginosa (P. aeruginosa [6]): 7.8 µg/mL (≈ 7.13 µM)

Molecule: CC[C@H](C)[C@H](N)C(=O)N[C@@H](CCCNC(=N)N)C(=O)N[C@H](C(=O)N[C@@H](CCCCN)C(=O)N[C@H](C(=O)N[C@@H](CCCNC(=N)N)C(=O)N[C@H](C(=O)N[C@@H](CCCCN)C(N)=O)C(C)C)[C@@H](C)CC)C(C)C [(IRVK)2-NH2] (H-IRVKIRVK-NH2; N-terminus assumed)
- GM, geometric mean of MIC values for the 5 microorganisms tested [1]: 78.1 µg/mL
- MIC E. coli (E. coli [2]): 62.5 µg/mL (≈ 61.9 µM)
- MIC C. albicans (C. albicans [3]): 7.8 µg/mL (≈ 7.72 µM)
- MIC S. aureus (S. aureus [4]): 250 µg/mL (≈ 247 µM)
- MIC S. epidermidis (S. epidermidis [5]): 7.8 µg/mL (≈ 7.72 µM)
- MIC P. aeruginosa (P. aeruginosa [6]): 62.5 µg/mL (≈ 61.9 µM)

Molecule: CC(C)[C@H](N)C(=O)N[C@@H](CCCNC(=N)N)C(=O)N[C@H](C(=O)N[C@@H](CCCCN)C(=O)N[C@H](C(=O)N[C@@H](CCCNC(=N)N)C(=O)N[C@H](C(=O)N[C@@H](CCCCN)C(N)=O)C(C)C)C(C)C)C(C)C [(VRVK)2-NH2] (H-VRVKVRVK-NH2; N-terminus assumed)
- MIC E. coli (E. coli [2]): 250 µg/mL (≈ 255 µM)
- MIC C. albicans (C. albicans [3]): 15.6 µg/mL (≈ 15.9 µM)
- MIC S. aureus (S. aureus [4]): >500 µg/mL
- MIC S. epidermidis (S. epidermidis [5]): 62.5 µg/mL (≈ 63.6 µM)
- MIC P. aeruginosa (P. aeruginosa [6]): >500 µg/mL

Molecule: N=C(N)NCCC[C@H](NC(=O)[C@H](Cc1c[nH]c2ccccc12)NC(=O)[C@H](CCCCN)NC(=O)[C@H](Cc1c[nH]c2ccccc12)NC(=O)[C@H](CCCNC(=N)N)NC(=O)[C@@H](N)Cc1c[nH]c2ccccc12)C(=O)N[C@@H](Cc1c[nH]c2ccccc12)C(=O)N[C@@H](CCCCN)C(N)=O [(WRWK)2-NH2] (H-WRWKWRWK-NH2; N-terminus assumed)
- GM, geometric mean of MIC values for the 5 microorganisms tested [1]: 92.2 µg/mL
- MIC E. coli (E. coli [2]): 15.6 µg/mL (≈ 11.7 µM)
- MIC C. albicans (C. albicans [3]): 250 µg/mL (≈ 188 µM)
- MIC S. aureus (S. aureus [4]): 62.5 µg/mL (≈ 47 µM)
- MIC S. epidermidis (S. epidermidis [5]): 7.8 µg/mL (≈ 5.86 µM)
- MIC P. aeruginosa (P. aeruginosa [6]): 125 µg/mL (≈ 93.9 µM)

Molecule: CC[C@@H](C)[C@@H](N)C(=O)N[C@@H](C(=O)N[C@H](CCCNC(=N)N)C(=O)N[C@H](CCCCN)C(=O)N[C@@H](C(=O)N[C@@H](C(=O)N[C@H](CCCNC(=N)N)C(=O)N[C@H](CCCCN)C(N)=O)[C@H](C)CC)[C@H](C)CC)[C@H](C)CC [Control-all D, iirkiirk-NH2] (H-[dI][dI][dR][dK][dI][dI][dR][dK]-NH2; N-terminus assumed)
- MIC S. aureus (S. aureus [7]): >500 µg/mL
- MIC P aeruginosa (P. aeruginosa [8]): >500 µg/mL
- MIC C. albicans (C. albicans [9]): 250 µg/mL (≈ 241 µM)
- MIC S. epidermidis (S. epidermidis [10]): >500 µg/mL
- MIC E. coli (E. coli [11]): >500 µg/mL
- HC10, haemolysis concentration 10%: lowest peptide concentration that induces ≧10% haemolysis (rabbit red blood cells): >2000 mg/L

Molecule: CC[C@@H](C)[C@@H](N)C(=O)N[C@H](CCCNC(=N)N)C(=O)N[C@@H](C(=O)N[C@H](CCCCN)C(=O)N[C@@H](C(=O)N[C@H](CCCNC(=N)N)C(N)=O)[C@H](C)CC)[C@H](C)CC [IK6-all D, irikir-NH2] (H-[dI][dR][dI][dK][dI][dR]-NH2; N-terminus assumed)
- MIC S. aureus (S. aureus [7]): 250 µg/mL (≈ 314 µM)
- GM, geometric mean of MIC values for the 5 microorganisms tested [12]: 113.3 µg/mL
- MIC P aeruginosa (P. aeruginosa [8]): 125 µg/mL (≈ 157 µM)
- MIC C. albicans (C. albicans [9]): 15.6 µg/mL (≈ 19.6 µM)
- MIC E. coli (E. coli [11]): 62.5 µg/mL (≈ 78.4 µM)

Molecule: CC[C@H](C)[C@H](N)C(=O)N[C@@H](CCCNC(=N)N)C(=O)N[C@H](C(=O)N[C@H](CCCCN)C(=O)N[C@H](C(=O)N[C@H](CCCNC(=N)N)C(=O)N[C@H](C(=O)N[C@@H](CCCCN)C(N)=O)[C@@H](C)CC)[C@@H](C)CC)[C@@H](C)CC [IK8-2D, IRIkIrIK-NH2] (H-IRI[dK]I[dR]IK-NH2; N-terminus assumed)
- MIC S. aureus (S. aureus [7]): 31.3 µg/mL (≈ 30.1 µM)
- GM, geometric mean of MIC values for the 5 microorganisms tested [12]: 12.5 µg/mL
- MIC P aeruginosa (P. aeruginosa [8]): 7.8 µg/mL (≈ 7.51 µM)
- MIC C. albicans (C. albicans [9]): 3.9 µg/mL (≈ 3.76 µM)
- MIC S. epidermidis (S. epidermidis [10]): 3.9 µg/mL (≈ 3.76 µM)
- MIC M. tuberculosis ([13]; strain number 1173): 62.5 µg/mL (≈ 60.2 µM)
- MIC M. tuberculosis ([13]; strain number 1177): 62.5 µg/mL (≈ 60.2 µM)
- MIC M. tuberculosis ([13]; strain number 1178): 62.5 µg/mL (≈ 60.2 µM)
- MIC M. tuberculosis ([13]; strain number 1179): 125 µg/mL (≈ 120 µM)
- MIC E. coli (E. coli [11]): 15.6 µg/mL (≈ 15 µM)
- HC10, haemolysis concentration 10%: lowest peptide concentration that induces ≧10% haemolysis (rabbit red blood cells): 1600 mg/L

Molecule: CC[C@@H](C)[C@@H](N)C(=O)N[C@H](CCCNC(=N)N)C(=O)N[C@@H](C(=O)N[C@H](CCCCN)C(=O)N[C@@H](C(=O)N[C@H](CCCNC(=N)N)C(=O)N[C@@H](C(=O)N[C@H](CCCCN)C(=O)N[C@@H](C(=O)N[C@H](CCCNC(=N)N)C(=O)N[C@@H](C(=O)N[C@H](CCCCN)C(N)=O)C(C)C)[C@H](C)CC)C(C)C)[C@H](C)CC)C(C)C [IK12-all D, irvkirvkirvk-NH2] (H-[dI][dR][dV][dK][dI][dR][dV][dK][dI][dR][dV][dK]-NH2; N-terminus assumed)
- MIC S. aureus (S. aureus [7]): 7.8 µg/mL (≈ 5.18 µM)
- GM, geometric mean of MIC values for the 5 microorganisms tested [12]: 12.7 µg/mL
- fold reduction in MIC values compared with the L-enantiomer ([12]; against the various bacteria): 2-4 fold
- MIC P aeruginosa (P. aeruginosa [8]): 15.6 µg/mL (≈ 10.4 µM)
- MIC C. albicans (C. albicans [9]): 31.3 µg/mL (≈ 20.8 µM)
- MIC S. epidermidis (S. epidermidis [10]): 1.0 µg/mL (≈ 0.664 µM)
- MIC E. coli (E. coli [11]): 7.8 µg/mL (≈ 5.18 µM)
- HC10, haemolysis concentration 10%: lowest peptide concentration that induces ≧10% haemolysis (rabbit red blood cells): >125^e) mg L^−1

Molecule: C[C@@H]1[C@H](O)[C@@H](C)/C=C/C=C/C=C/C=C/C=C/C=C/C=C/[C@H](O[C@@H]2O[C@H](C)[C@@H](O)[C@H](N)[C@@H]2O)C[C@@H]2O[C@](O)(C[C@@H](O)C[C@@H](O)[C@H](O)CC[C@@H](O)C[C@@H](O)CC(=O)O[C@H]1C)C[C@H](O)[C@H]2C(=O)O [amphotericin B, reference compound]
- fungal cells eradicated from the biofilms compared to the untreated control group (C. albicans keratitis; C. albicans counts in mice cornea, agar plating): ~90%
- depth of hyphal invasion into the cornea, PAS histology (C. albicans keratitis; [15]): reduced the maximal depth of hyphal invasion
- resolution of the keratitis infection (eye appearance) (C. albicans keratitis; [15]): significant resolution of the keratitis infection
- clinical scores of mice corneas (slit lamp) (C. albicans keratitis; topical eye drops, peptides 3000 mg/L, amphotericin B 1000 mg/L, P<0.01): significantly lower than that in the control group

Molecule: Polymyxin B [reference compound]
- GM, geometric mean of MIC values for the 5 microorganisms tested [1]: 41.4 µg/mL
- MIC E. coli (E. coli [2]): 2.0 µg/mL
- LD50 reported for comparator (mice): 5.4 mg/kg
- MIC C. albicans (C. albicans [3]; room temperature): 62.5 µg/mL
- MIC S. aureus (S. aureus [4]): 125 µg/mL
- MIC S. epidermidis (S. epidermidis [5]): 15.6 µg/mL
- MIC P. aeruginosa (P. aeruginosa [6]): 2.0 µg/mL

Molecule: gentamicin sulfate
- MICn/MIC0 (E. coli [14]; passage 2): 2
- MICn/MIC0 (E. coli [14]; passage 6): 4

Molecule: gramicidin
- LD50 reported for comparator (mice): 1.5 mg/kg
